What was measured:
wheat [1] = assay: Test C postemergence; assay type: in vivo, Triticum aestivum; conditions: 10 days
Procedure, shortened: (§1)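 Pre: seeds in loam/sand, directed soil spray. Post: 1–2 leaf plants, 2–10 cm. Cmpd in non-phytotoxic solvent + surfactant. Greenhouse 10 d; visual rating vs untreated, 0 = none, 100 = complete control.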

ragweed [2] = assay: Test C preemergence; assay type: in vivo, Ambrosia artemisiifolia; conditions: 0 to 100 scale (0 no effect, 100 complete control)
Procedure, shortened: as §1

soybean [3] = assay: Test C postemergence; assay type: in vivo, Glycine max; conditions: 10 days
Procedure, shortened: as §1

ragweed [4] = assay: Test C postemergence; assay type: in vivo, Ambrosia artemisiifolia; conditions: 10 days
Procedure, shortened: as §1

corn [5] = assay: Test C preemergence; assay type: in vivo, Zea mays; conditions: 0 to 100 scale (0 no effect, 100 complete control)
Procedure, shortened: as §1

barnyardgrass [6] = assay: Test C preemergence; assay type: in vivo, Echinochloa crusgalli; conditions: 0 to 100 scale (0 no effect, 100 complete control)
Procedure, shortened: as §1

horseweed = assay: Test C postemergence; assay type: in vivo, Erigeron canadensis; conditions: 10 days
Procedure, shortened: as §1

ryegrass, Italian [7] = assay: Test C preemergence; assay type: in vivo, Lolium multiflorum; conditions: 0 to 100 scale (0 no effect, 100 complete control)
Procedure, shortened: as §1

green foxtail [8] = assay: Test C preemergence; assay type: in vivo, Setaria viridis; conditions: 0 to 100 scale (0 no effect, 100 complete control)
Procedure, shortened: as §1

soybean [9] = assay: Test C preemergence; assay type: in vivo, Glycine max; conditions: 0 to 100 scale (0 no effect, 100 complete control)
Procedure, shortened: as §1

barnyardgrass [10] = assay: Test D flooded paddy test; assay type: in vivo, Echinochloa crus-galli; conditions: 250 g ai/ha, applied to paddy water, visual rating after 13 to 14 days, scale 0 to 100 (0 no effect, 100 complete control)
Procedure, shortened: (§2)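 Plants grown to the 2-leaf stage; pots flooded to 3 cm above soil at treatment and held at that depth throughout. Test compounds applied directly to the paddy water. After 13 to 14 days in a greenhouse, response was rated visually versus controls on a 0 (no effect) to 100 (complete control) scale.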

ryegrass, Italian [11] = assay: Test C postemergence; assay type: in vivo, Lolium multiflorum; conditions: 10 days
Procedure, shortened: as §1

pigweed, palmer [12] = assay: Test C preemergence; assay type: in vivo, Amaranthus palmeri; conditions: 0 to 100 scale (0 no effect, 100 complete control)
Procedure, shortened: as §1

green foxtail [13] = assay: Test C postemergence; assay type: in vivo, Setaria viridis; conditions: 10 days
Procedure, shortened: as §1

pigweed, palmer [14] = assay: Test C postemergence; assay type: in vivo, Amaranthus palmeri; conditions: 10 days
Procedure, shortened: as §1

blackgrass [15] = assay: Test C preemergence; assay type: in vivo, Alopecurus myosuroides; conditions: 0 to 100 scale (0 no effect, 100 complete control)
Procedure, shortened: as §1

sedge, umbrella = assay: Test D flooded paddy test; assay type: in vivo, Cyperus difformis; conditions: 250 g ai/ha, applied to paddy water, visual rating after 13 to 14 days, scale 0 to 100 (0 no effect, 100 complete control)
Procedure, shortened: as §2

barnyardgrass [16] = assay: Test C postemergence; assay type: in vivo, Echinochloa crusgalli; conditions: 10 days
Procedure, shortened: as §1

galium = assay: Test C postemergence; assay type: in vivo, Galium aparine; conditions: 125 g ai/ha, postemergence, 10 days; 0 to 100 scale, 0 no effect, 100 complete control
Procedure, shortened: as §1

rice = assay: Test D flooded paddy test; assay type: in vivo, Oryza sativa; conditions: 250 g ai/ha, applied to paddy water, visual rating after 13 to 14 days, scale 0 to 100 (0 no effect, 100 complete control)
Procedure, shortened: as §2

corn [17] = assay: Test C postemergence; assay type: in vivo, Zea mays; conditions: 10 days
Procedure, shortened: as §1

blackgrass [18] = assay: Test C postemergence; assay type: in vivo, Alopecurus myosuroides; conditions: 10 days
Procedure, shortened: as §1

oat, wild [19] = assay: Test C preemergence; assay type: in vivo, Avena fatua; conditions: 0 to 100 scale (0 no effect, 100 complete control)
Procedure, shortened: as §1

kochia [20] = assay: Test C preemergence; assay type: in vivo, Bassia scoparia; conditions: 0 to 100 scale (0 no effect, 100 complete control)
Procedure, shortened: as §1

kochia [21] = assay: Test C postemergence; assay type: in vivo, Bassia scoparia; conditions: 10 days
Procedure, shortened: as §1

oat, wild [22] = assay: Test C postemergence; assay type: in vivo, Avena fatua; conditions: 10 days
Procedure, shortened: as §1

wheat [23] = assay: Test C preemergence; assay type: in vivo, Triticum aestivum; conditions: 0 to 100 scale (0 no effect, 100 complete control)
Procedure, shortened: as §1

ducksalad = assay: Test D flooded paddy test; assay type: in vivo, Heteranthera limosa; conditions: 250 g ai/ha, applied to paddy water, visual rating after 13 to 14 days, scale 0 to 100 (0 no effect, 100 complete control)
Procedure, shortened: as §2

[24] = 125 g ai/ha, postemergence, 0 to 100 scale, 0 no effect, 100 complete control
[25] = Postemergence, 500 g ai/ha, visual 0 to 100 scale (0 no effect, 100 complete control)
[26] = Preemergence, 500 g ai/ha, visual rating after 10 days
[27] = Test C, preemergence, 125 g ai/ha

`Cc1cc(-n2cnc(C(C)C)n2)cc(C(=O)N2C[C@H](C)Oc3c(Cl)cccc32)c1F` [Compound 223] was tested, and the “Plant response rating, Wheat” value (wheat [1]; [24]) was 10, the “Plant response rating, Wheat” value (wheat [1]; [25]) was 30 and the “Plant response rating, Ragweed” value (ragweed [2]; [26]) was 40. For the same compound, the “Ragweed plant response rating” value (ragweed [2]; [27]) was 50, the “Plant response rating, Soybean” value (soybean [3]; [24]) was 100 and the “Plant response rating, Soybean” value (soybean [3]; [25]) was 100. The “Plant response rating, Ragweed” value (ragweed [4]; [24]) was 0, the “Plant response rating, Ragweed” value (ragweed [4]; [25]) was 10 and the “Plant response rating, Corn” value (corn [5]; [26]) was 40. For the same compound, the “Corn plant response rating” value (corn [5]; [27]) was 0, the “Plant response rating, Barnyardgrass” value (barnyardgrass [6]; [26]) was 100 and the “Barnyardgrass plant response rating” value (barnyardgrass [6]; [27]) was 90. The “Plant response rating, Horseweed” value (horseweed; [24]) was 20, the “Plant response rating, Horseweed” value (horseweed; [25]) was 30 and the “Plant response rating, Ryegrass, Italian” value (ryegrass, Italian [7]; [26]) was 90. The “Ryegrass, Italian plant response rating” value (ryegrass, Italian [7]; [27]) was 80, the “Plant response rating, Foxtail, Green” value (green foxtail [8]; [26]) was 100 and the “Foxtail, Green plant response rating” value (green foxtail [8]; [27]) was 100. For the same compound, the “Plant response rating, Soybean” value (soybean [9]; [26]) was 70, the “Soybean plant response rating” value (soybean [9]; [27]) was 10 and the “Plant response rating, Barnyardgrass (Flood)” value (barnyardgrass [10]) was 10. For the same compound, the “Plant response rating, Ryegrass, Italian” value (ryegrass, Italian [11]; [24]) was 50, the “Plant response rating, Ryegrass, Italian” value (ryegrass, Italian [11]; [25]) was 90 and the “Plant response rating, Pigweed, Palmer” value (pigweed, palmer [12]; [26]) was 100. The “Pigweed, Palmer plant response rating” value (pigweed, palmer [12]; [27]) was 100, the “Plant response rating, Foxtail, Green” value (green foxtail [13]; [24]) was 30 and the “Plant response rating, Foxtail, Green” value (green foxtail [13]; [25]) was 60. The “Plant response rating, Pigweed, Palmer” value (pigweed, palmer [14]; [24]) was 80, the “Plant response rating, Pigweed, Palmer” value (pigweed, palmer [14]; [25]) was 90 and the “Plant response rating, Blackgrass” value (blackgrass [15]; [26]) was 90. The “Blackgrass plant response rating” value (blackgrass [15]; [27]) was 40, the “Plant response rating, Sedge, Umbrella (Flood)” value (sedge, umbrella) was 95 and the “Plant response rating, Barnyardgrass” value (barnyardgrass [16]; [24]) was 20. For the same compound, the “Plant response rating, Barnyardgrass” value (barnyardgrass [16]; [25]) was 40, the “Plant response rating, Galium” value (galium) was 100 and the “Plant response rating, Rice (Flood)” value (rice) was 10. For the same compound, the “Plant response rating, Corn” value (corn [17]; [24]) was 20, the “Plant response rating, Corn” value (corn [17]; [25]) was 80 and the “Plant response rating, Blackgrass” value (blackgrass [18]; [24]) was 30. The “Plant response rating, Blackgrass” value (blackgrass [18]; [25]) was 70, the “Plant response rating, Oat, Wild” value (oat, wild [19]; [26]) was 70 and the “Oat, Wild plant response rating” value (oat, wild [19]; [27]) was 50. For the same compound, the “Plant response rating, Kochia” value (kochia [20]; [26]) was 80, the “Kochia plant response rating” value (kochia [20]; [27]) was 60 and the “Plant response rating, Kochia” value (kochia [21]; [24]) was 90. For the same compound, the “Plant response rating, Kochia” value (kochia [21]; [25]) was 90, the “Plant response rating, Oat, Wild” value (oat, wild [22]; [24]) was 10 and the “Plant response rating, Oat, Wild” value (oat, wild [22]; [25]) was 30. The “Plant response rating, Wheat” value (wheat [23]; [26]) was 90, the “Wheat plant response rating” value (wheat [23]; [27]) was 20 and the “Plant response rating, Ducksalad (Flood)” value (ducksalad) was 80.

— patent publication US20260262643A1, “HERBICIDAL BENZOXAZINES” (FMC CORPORATION, priority 2022, published 2026)
